Test results taken from patent US20140314890A1, “COMBINATION ANTI-CANCER THERAPY” (THE FLORIDA INTERNATIONAL UNIVERSITY BOARD OF TRUSTEES, priority 2011, published 2014).

Key:
Type in all cases: cell-based
[1] = system: caspase-9; assay: Caspase-9 activity, colorimetric assay of cell lysates (Ac-LEHD-pNA); conditions: LNCaP; C-PC 250 μg/mL, topotecan 10 μM; 16 hours
Procedure: (§1) LNCaP cells were treated with different concentrations of the C-PC (250 μg mL−1) and topotecan (10 μM) for 16 hours. After the incubation time, cells were harvested, washed and resuspended in cell lysis buffer and kept on ice for 10 minutes. The cell lysate was centrifuged at 5000 rpm for 5 minutes, the supernatant was assayed for protein concentration and further diluted with the lysis buffer to adjust the protein concentration. Equal amounts of protein from each sample was added to 96-well plates and mixed with the 2×reaction buffer [100 mM HEPES (pH 7.4), 200 mM NaCl, 20 mM dithiotheritol, 2 mM EDTA, and 0.2% chaps] and 2 mM of the respective substrates acetyl-Leu-Glu-His-Asp-p-nitroaniline (Ac-LEHD-pNA) and acetyl-Asp-Glu-Val-Asp-p-nitroaniline (Ac-DEVD-pNA). For measuring the specific activity of caspase-9 and caspase-3, the respective inhibitors Ac-LEHD-CHO and Ac-DEVD-CHO were used. Release of the cleaved p-nitroanilide from the tetrapeptide substrates was measured using the 96-well microplate reader at 405 nm.

[2] = system: LNCaP cells; assay: Cell death / cell viability by trypan blue dye exclusion test; conditions: for inhibition of cell growth (percentage of live cells, FIG. 1): LNCaP, C-PC 250 and 500 μg/mL or topotecan 1 μM and 10 μM individually, 16 hours
Procedure: (§2) The LNCaP cells were grown as a complete monolayer in RPMI-1640 growth medium supplemented with 10% fetal bovine serum, 10,000 U/mL of penicillin, 10,000 μg/mL of streptomycin, 1% (+)-L-glutamine, and 1% amphotericin-B. The cells were grown at 37° C. under a humidified air/CO2 (19:1) atmosphere. All experiments were conducted using cells in logarithmic phase. In each well of a six-well plate, approximately 1×10^6 cells per well were grown for 24 hours.
(§3) To determine the cell viability, monolayer culture of LNCaP cells were treated with different concentrations of the C-PC (250 and 500 μg mL−1) and topotecan (1 μM and 10 μM) individually and in combination of C-PC (250 and 500 μg mL−1) with topotecan at 1 μM for 16 hours. After the incubation period, cell death was determined by using trypan blue dye exclusion test. To determine the levels of ROS generation, the cells cultured in 6-well plate were incubated with different concentrations of C-PC and topotecan as described above for 16 hours. At the end of incubation period, levels of ROS generated were measured using the NBT reduction assay.

[3] = system: LNCaP cells; assay: ROS generation by NBT reduction assay; conditions: 16 hours
Procedure: as §2, §3

[4] = system: caspase-3; assay: Caspase-3 activity, colorimetric assay of cell lysates (Ac-DEVD-pNA); conditions: LNCaP; C-PC 250 μg/mL, topotecan 10 μM; 16 hours
Procedure: as §1

Row | Compound | caspase-9 activity compared to untreated control cells (FIG. 4) [1] | inhibition of cell growth (percentage of live cells, FIG. 1) [2] | rate of ROS generation (FIG. 2) [3] | caspase-3 activity compared to untreated control cells (FIG. 4) [4] | antiproliferative activity ([2]; prostate cancer cell line LNCaP, preliminary work)
1 | CC[C@@]1(O)C(=O)OCc2c1cc1n(c2=O)Cc2cc3c(CN(C)C)c(O)ccc3nc2-1 [topotecan, reference compound] | increased | significant inhibition of cell growth | significant increase in the rate of ROS generation | increased | –
2 | phycocyanin | increased | significant inhibition of cell growth | significant increase in the rate of ROS generation | increased | had antiproliferative activity
